What is called IC50 is the concentration that gives 50% inhibition.

The source of these data is US9695135B2, “Therapeutic catechols” (priority 2014, dated 2017).

The assay deals with T1, PAN domain endonuclease (Influenza A virus, UniProt C3W5S0).
T1 construct: The PAN domain of 2009 pandemic H1N1 virus polymerase (residues 1-204) has now been crystallized
Nature of the assay: Endonuclease inhibition assay (FRET, FAM/MGBNFQ TaqMan-like probe cleavage by PAN). The assay is classed as biochemical, influenza A (2009 pandemic H1N1 virus). To be noted: 25 nM endonuclease, 50 nM probe, 37 degrees Celsius, fluorescence ex 488 nm / em 518 nm. From the text: A TaqMan-like oligonucleotide was used containing a 6-carboxy-fluorescein (FAM) fluorophore at the 5′-end followed by 19 nucleotides and a minor groove binding non-fluorescent quencher (MGBNFQ, Applied Biosystems) at the 3′-end. When excited by light at a wavelength of 488 nm, MGBNFQ quenches the fluorescence of FAM via fluorescence resonance energy transfer. If the endonuclease cleaves the oligonucleotide, the quencher is no longer coupled to the fluorophore, and therefore, FAM fluoresces. This assay can be performed in a high-throughput (e.g. 96 well plate) format. The assay can be used to evaluate the inhibitory characteristics of compounds that are found to bind PAN and to screen libraries of drug-like compounds. The assay uses the probe 6FAM-[…]-MGBNFQ (SEQ ID NO: 1)
The assay can be performed in a 40 μl reaction volume with 50 mM Tris pH 7.5, 50 mM NaCl, 1 mM MgSO4, 0.5 mM MnSO4, 1 mM DTT, 0.75 mM CHAPS, 50 nM probe, and 25 nM endonuclease.
The reaction mixture is set up as a master mix with the buffer, probe, and protein on ice. The inhibitor is then added to a maximum DMSO concentration of 2.5% (v/v) and serial dilutions are made on ice. Varioskan Fluorometer (Thermo Scientific), set to an excitation of 488 nm and emission of 518 nm, is used to measure the fluorescence of the samples at 37 degrees Celsius. Fluorescence is measured at various time points (5, 120, and 240 minutes) during the 37 degrees Celsius incubation. Activity/inhibition is calculated based on the change in fluorescence over time using Prism Graphpad non-linear regression analysis.
In general terms: In qPCR the cycle at which signal appears reflects the starting amount.
`Oc1cc(-c2ccc(F)cc2)c(-c2ccc(F)cc2)cc1O` [Example 1] displayed an IC50 of 390 nM.

With `O=[N+]([O-])c1c(O)c(O)cc(-c2ccc(F)cc2)c1-c1ccc(F)cc1` [Example 2], the IC50 was 434 nM.

For the molecule `N#Cc1ccc(-c2cc(O)c(O)cc2-c2ccc(C#N)cc2)cc1` [Example 3, 4′,5′-dihydroxy-[1,1′:2′,1″-terphenyl]-4,4″-dicarbonitrile], half-maximal inhibition (IC50) was put at 395 nM. The IC50 values of the last two molecules are within 1.5-fold of each other. In the case of `N#Cc1ccc(-c2cc(O)c(O)c([N+](=O)[O-])c2-c2ccc(C#N)cc2)cc1` [Example 4] it was 194 nM; in that of `N#Cc1ccc(-c2cc(O)c(O)cc2-c2ccc(F)cc2)cc1` [Example 5, 4″-fluoro-4′,5′-dihydroxy-[1,1′:2′,1″-terphenyl]-4-carbonitrile], 290 nM. With `Oc1cc(-c2ccc(F)cc2)c(-c2ccc(-c3nnn[nH]3)cc2)cc1O` [Example 6] the figure was 425 nM; with `Oc1cc(-c2ccc(-c3nnn[nH]3)cc2)c(-c2ccc(-c3nnn[nH]3)cc2)cc1O` [Example 7], 847 nM.
